The values that follow come from patent US9920295B2, “Bioreactor for isolation of rare cells and methods of use” (The Trustees of the University of Pennsylvania, priority 2012, dated 2018).

Each structure is given as a SMILES string. Some results are limits rather than exact numbers.

Experiment [1] concerns CD34+-derived cells (HSC, MPP, CPP). The experiment is described as follows: HSC/P numbers on FN-coated gels of different elasticity. The settings on record: drug-treated cells. The format is cell-based, human. The procedure: 15-18 mm glass coverslips were treated in order with ethanol, RCA solution (1:1:3 for 15N NH4OH:30% H2O2:dH2O), methylene chloride and 0.1% allyltrichlorosilane solution. To control gel's stiffness, n,n′ methylene-bis-acrylamide and the acrylamide solution was mixed at the ratio of 0.07%:3% for soft gels (0.3 kPa), or the ratio of 0.3%:8% for stiff gels (34 kPa), final concentrations in PBS. ˜25 μl of the mixed solution was polymerized on a coverslip with 10% ammonium persulfate and n,n,n′,n′-tetramethylethylenediamine. During polymerization, gels were covered with another coverslip to obtain a uniform gel surface with the final thickness of ˜100 μm. Different concentrations of FN were then cross-linked with polymerized gels using sulfo-SANFAH (Pierce, Rockford, Ill.) by UV-crosslinking Thickness of gels and relative FN concentrations were verified by confocal microscopy. It is assumed that most FN from the solution was attached to gels (>70%). FN-coated gels were then treated with UV in PBS for at least 1 hr before use in cell culture.

For experiment [2], the target named is T1, NMM-IIA (Homo sapiens, UniProt P35579).
T1 construct: endogenous in cells; host or cells: THP-1 cells
T1 sequence (P35579 2-1960 limits assumed): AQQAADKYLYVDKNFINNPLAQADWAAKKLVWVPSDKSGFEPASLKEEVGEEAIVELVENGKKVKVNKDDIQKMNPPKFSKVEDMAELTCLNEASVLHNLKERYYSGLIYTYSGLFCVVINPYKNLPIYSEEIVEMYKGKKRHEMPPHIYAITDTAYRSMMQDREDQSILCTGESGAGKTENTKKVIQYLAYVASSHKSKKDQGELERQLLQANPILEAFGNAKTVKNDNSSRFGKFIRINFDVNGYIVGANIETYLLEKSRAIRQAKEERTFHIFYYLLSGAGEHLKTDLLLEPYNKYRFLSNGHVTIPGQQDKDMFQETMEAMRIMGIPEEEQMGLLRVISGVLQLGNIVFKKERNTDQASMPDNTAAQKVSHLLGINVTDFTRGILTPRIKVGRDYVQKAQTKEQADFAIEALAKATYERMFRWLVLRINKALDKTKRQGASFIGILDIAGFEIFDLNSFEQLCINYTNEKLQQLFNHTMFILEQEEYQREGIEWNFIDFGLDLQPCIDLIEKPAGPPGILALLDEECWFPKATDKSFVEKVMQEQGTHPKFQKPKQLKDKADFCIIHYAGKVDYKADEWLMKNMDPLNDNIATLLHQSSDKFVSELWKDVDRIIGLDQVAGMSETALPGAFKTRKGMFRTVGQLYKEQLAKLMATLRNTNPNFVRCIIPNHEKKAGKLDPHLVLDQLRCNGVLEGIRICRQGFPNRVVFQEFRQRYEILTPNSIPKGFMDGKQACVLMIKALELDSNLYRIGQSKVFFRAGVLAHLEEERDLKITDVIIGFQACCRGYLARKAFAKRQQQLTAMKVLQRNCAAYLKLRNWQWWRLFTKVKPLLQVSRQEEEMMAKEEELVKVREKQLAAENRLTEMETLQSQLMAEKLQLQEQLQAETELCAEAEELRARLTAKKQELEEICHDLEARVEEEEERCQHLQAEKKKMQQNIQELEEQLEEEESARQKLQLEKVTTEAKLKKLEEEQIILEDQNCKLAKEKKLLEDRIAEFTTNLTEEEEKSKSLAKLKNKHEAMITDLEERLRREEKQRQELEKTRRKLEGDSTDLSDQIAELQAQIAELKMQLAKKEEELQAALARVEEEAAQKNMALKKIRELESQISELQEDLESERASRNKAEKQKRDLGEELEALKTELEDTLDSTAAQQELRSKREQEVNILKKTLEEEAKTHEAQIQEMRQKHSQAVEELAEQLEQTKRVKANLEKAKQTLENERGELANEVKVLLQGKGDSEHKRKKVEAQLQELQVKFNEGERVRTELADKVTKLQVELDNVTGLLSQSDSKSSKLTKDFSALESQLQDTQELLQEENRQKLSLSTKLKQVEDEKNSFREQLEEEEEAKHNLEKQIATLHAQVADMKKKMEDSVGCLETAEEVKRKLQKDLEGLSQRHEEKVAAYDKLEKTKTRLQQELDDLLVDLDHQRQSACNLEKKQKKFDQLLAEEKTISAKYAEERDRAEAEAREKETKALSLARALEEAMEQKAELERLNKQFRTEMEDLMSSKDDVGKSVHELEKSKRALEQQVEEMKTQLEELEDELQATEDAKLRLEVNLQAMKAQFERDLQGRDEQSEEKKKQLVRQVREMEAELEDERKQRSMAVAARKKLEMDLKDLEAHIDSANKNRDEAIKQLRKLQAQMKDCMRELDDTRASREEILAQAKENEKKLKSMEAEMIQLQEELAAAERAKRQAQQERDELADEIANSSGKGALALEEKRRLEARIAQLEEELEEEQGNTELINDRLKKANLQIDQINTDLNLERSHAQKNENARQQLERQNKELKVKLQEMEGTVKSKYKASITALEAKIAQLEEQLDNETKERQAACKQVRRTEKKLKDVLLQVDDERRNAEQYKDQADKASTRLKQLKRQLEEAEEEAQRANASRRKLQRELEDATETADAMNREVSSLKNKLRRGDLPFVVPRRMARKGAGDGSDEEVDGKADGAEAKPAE
T1 sequence (P60660 2-151 partner limits assumed): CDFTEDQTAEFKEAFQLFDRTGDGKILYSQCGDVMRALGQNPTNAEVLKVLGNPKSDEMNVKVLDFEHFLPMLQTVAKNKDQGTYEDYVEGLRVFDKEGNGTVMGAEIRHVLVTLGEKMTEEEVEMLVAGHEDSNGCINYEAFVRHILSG
T1 sequence (O14950 2-172 partner limits assumed): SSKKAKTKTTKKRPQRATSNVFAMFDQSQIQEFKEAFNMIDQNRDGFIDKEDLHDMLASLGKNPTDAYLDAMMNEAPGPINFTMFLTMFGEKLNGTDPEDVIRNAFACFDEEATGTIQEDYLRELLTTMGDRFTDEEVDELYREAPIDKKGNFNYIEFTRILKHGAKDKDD
The experiment in a line: NMM-IIA phosphorylation in THP-1 cells (IP, MS, flow cytometry). The format is cell-based. As to the method:
In general, cells were washed with ice-cold PBS and lysed on ice with lysis buffer (150 mM sodium chloride, 1% Nonidet P-40, 1% protease inhibitor mixture, 1 mM activated sodium orthovanadate, 50 mM Tris at pH 8.0) for 30 min. For immunoprecipitation (IP), 30 mM of pervanadate solution was prepared by mixing sodium orthovanadate with H2O2 for 15 min at room temperature. At least 1×10^7 THP-1 cells were treated with pervanadate with or without blebbistatin at 37° C. for 15 min. Cells were then washed, lysed, and whole-cleared lysate was mixed with anti-NMM-IIA antibody at 4° C. overnight, followed by incubation with Protein G (Invitrogen) for 1 h. For Western blot, whole lysate or IP proteins were separated on 4% to 12% SDS/PAGE gels (NuPAGE 4-12% Bis-Tris, Invitrogen). The proteins were then transferred to a polyvinylidene fluoride (PVDF) membrane with an iBlot Gel Transfer Device (Invitrogen), followed by blocking with 5% nonfat dry milk solution for 1 h. Incubation with primary antibodies was done at 4° C. overnight with 1:1,000β-actin, 1:250 pTyr, and 1:1,000 NMM-IIA antibodies. After washing, the membrane was incubated with 1:2,500 anti-rabbit and 1:1,000 anti-mouse HRP-conjugated IgG antibodies at room temperature for 1 h. […]
A general note: Flow cytometry measures light scatter and fluorescence of single cells or particles in a stream.

Experiment [3] concerns SCID-repopulating cells in NSG mice. The experiment is described as follows: Engraftment in NSG mice and limiting dilution analysis. The conditions noted are these: mouse, in vivo. As to the method: BM-derived CD34^+ cells were cultured in SCF and Tpo (100 ng/ml each) for 4 days and treated under control conditions or Bleb (20 μM) for 3 days. The cells were injected intra-tibially into sub-lethally irradiated (250 rads) 6-10-week-old NSG mice within 24 hr after irradiation. Engraftment was assessed by analysis of blood or bone marrow using anti-mouse and anti-human CD47 antibodies using flow cytometry. The mice were sacrificed after sixteen weeks post-transplantation. For secondary engraftment, 50% of the bone marrow from femurs and tibias from each mouse was transplanted into one sub-lethally irradiated NSG mouse. 16 weeks after transplantation, blood and bone marrow were harvested from the mice and analyzed by flow cytometry. All animal experiments were done in accordance with institutional guidelines approved by the ethical committee from the University of Pennsylvania. The human repopulation HSC frequency was quantified by extreme limiting dilution analysis (ELDA) software (Hu and Smyth, 2009)

Experiment [4] concerns human-CD41+ platelets in NSG mice. The experiment in a line: In vivo human platelet generation after intratibial transplantation into NSG mice. More on the design: species or system mouse. The procedure:
Eight- to 10-wk-old nonobese diabetic (NOD)/SCID/IL-2Rγ−/− (NSG) mice were obtained and maintained in-house at the Penn Xenograft Core Facility. Before transplantation (˜24 h), mice received a sublethal dose of 320 cGy total body irradiation. Cultured human CD34^+-derived cells (0.5−3×10^5 uncultured BM CD34^+ equivalent) with or without drug treatment was suspended in 20 μL PBS and injected directly into the tibia. Peripheral blood (PB) was then obtained from the transplanted mice via retroorbital bleeding and human platelet quantification was done at indicated times. To calculate human platelet in NSG circulation, the total platelet concentration count was done by Hemavet (Drew Scientific), and 2 μL of PB per staining sample was washed in the presence of PGE1 inhibitor (Sigma) and resuspended in PBS. Cells were incubated with mouse Fc-blocker (BD Biosciences) for 5 min, followed by addition of mouse anti-human CD41-FITC and rat anti-mouse CD41-PE antibodies (eBioscience). After 30 min incubation at room temperature, cells were fixed by addition of 0.5% paraformaldehyde and analyzed by flow cytometry within 2 h. Platelets were gated on based on forward and side scatters, and at least 50,000 events were acquired. Human platelet concentration was obtained by multiplying the total platelet count by the percentage of human CD41-FITC of the total CD41^+ platelets (mouse plus human). Microscopic determination and isotype control with mixing known number of human platelets indicate the threshold detection limit of 0.001%. The total human platelet number in each transplanted NSG mouse was estimated by assuming that the average total mouse blood is ˜1.5 mL (Riches et al., 1973, J Physiol, 228:279-284). All animal experiments were performed in accordance with institutional guidelines approved by the ethical committee from the University of Pennsylvania.

Turning to `Cc1ccc2c(c1)C(=O)C1(O)CCN(c3ccccc3)C1=N2` (racemic) [blebbistatin, (±)-blebbistatin], in experiment [1], the “CPP number soft vs stiff, mean” value is on record as 0.9±0.1; the “MPP number soft vs stiff, mean” value is listed as 1.0±0.1; the “increase of HSC-to-MPP ratio with increasing FN density” value is greater than 2 fold; the “ratio of HSC numbers soft vs stiff, mean” value is on record as 1.1±0.2. In addition, the pTyr levels entry in experiment [2] (THP-1, basal and phosphatase-inhibited conditions) was “decreases pTyr levels”. In addition, the “phospho-S1943 of NMM-IIA” value in experiment [2] (THP-1, detergent-soluble monomer) is on record as “increases phospho-S1943”. In addition, in experiment [3], the “increase in HSC frequency in terms of total cell number injected” value amounted to 4 fold. For the same molecule, the “human plts per transplanted CD41+ cell vs untreated” value in experiment [4] (Phase-I and Phase-II of circulation) is “about 4 fold”. In experiment [4] (Phase-II decay, regardless of drug treatment), this molecule came in with a plt half-life of roughly 37 h. For the same molecule, the “in vivo human platelets per transplanted CD41+ cell vs untreated” value in experiment [4] (cells treated ex vivo 3 d, day 3 posttransplant) is given as “about fourfold”.
